Data on two compounds can be found in patent US20100167925A1, “Substituted Azolin-2-yl-Amino Compounds” (BASF SE, priority 2006, published 2010).

Data set [1] concerns Aphis gossypii. The data set can be described thus: Cotton aphid (Aphis gossypii) mortality on dipped cotton plants. Format: in vivo. The following applies: 120 h, cotton plants in cotyledon stage dipped into test solution, aphid mortality determined after 5 days, read-out: mortality in comparison with untreated controls. Here is the method: I. Cotton Aphid (Aphis gossypii)
Cotton plants in the cotyledon stage (variety ‘Delta Pine’) are infested with approximately 100 laboratory-reared aphids by placing infested leaf sections on top of the test plants. The leaf sections are removed after 24 hours. The cotyledons of the intact plants are dipped into gradient solutions of the test compound. Aphid mortality on the treated plants, relative to mortality on check plants, is determined after 5 days.

The subject of data set [2] is Myzus persicae. The data set can be described thus: Green peach aphid (Myzus persicae) mortality on dipped pepper plants. Format: in vivo. The conditions noted are these: 120 h, pepper plants in 2nd leaf-pair stage dipped into test solution, aphid mortality determined after 5 days, read-out: mortality in comparison with untreated controls. Here is the method:
I.b. Green Peach Aphid (Myzus persicae)
Pepper plants in the 2nd leaf-pair stage (variety ‘California Wonder’) are infested with approximately 40 laboratory-reared aphids by placing infested leaf sections on top of the test plants. The leaf sections are removed after 24 hours. The leaves of the intact plants are dipped into gradient solutions of the test compound. Aphid mortality on the treated plants, relative to mortality on check plants, is determined after 5 days.

Molecules are shown by their SMILES.

Broadly, the melting point is the temperature of the solid-liquid transition. Consider `CC1(C)Cc2ccccc2C1N=C1SCCN1C1=NCCS1` (stereo not drawn), for which the melting point was 161 to 163 °C.
Broadly, the mortality is the percentage killed. For `CC1(C)Cc2ccccc2C1NC1=NCCS1` (stereo not drawn) [Example 22, (4,5-Dihydro-thiazol-2-yl)-(2,2-dimethyl-indan-1-yl)-amine], the mortality at 300 ppm in data set [1] and in data set [2] was greater than 70% each time.
